# Reference: patent US10227323B2, “Glucosylceramide synthase inhibitors for the treatment of diseases” (BIOMARIN PHARMACEUTICAL INC., priority 2013, dated 2019)
# Target: T1, GCS (Canis lupus familiaris, UniProt A0A8I3MXG6)
# T1 sequence (A0A8I3MXG6 1-394): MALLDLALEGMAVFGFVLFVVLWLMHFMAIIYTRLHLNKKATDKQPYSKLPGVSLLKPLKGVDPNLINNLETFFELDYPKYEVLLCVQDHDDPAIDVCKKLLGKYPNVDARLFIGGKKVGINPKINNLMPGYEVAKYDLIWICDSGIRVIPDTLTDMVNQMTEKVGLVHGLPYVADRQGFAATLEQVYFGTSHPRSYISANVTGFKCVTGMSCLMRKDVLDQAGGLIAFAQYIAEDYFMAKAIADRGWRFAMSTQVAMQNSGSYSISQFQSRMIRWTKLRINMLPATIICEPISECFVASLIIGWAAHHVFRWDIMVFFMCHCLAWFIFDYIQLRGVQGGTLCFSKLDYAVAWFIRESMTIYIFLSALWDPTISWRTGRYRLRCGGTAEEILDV
# Assay: Assay 1: GCS Enzymatic Assay (MDCK cell lysate, C6-NBD-Ceramide, LC/MS)
# Assay type: biochemical, canine
# Conditions: Table 2; data marked by *
# How it was run: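 LC/MS/MS measurement of glucosylceramide and NBD-ceramide after a 1 h, 37 °C reaction with 100 μM UDP-glucose and 10 μM C6-NBD-ceramide gave IC50s or percent inhibition.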
row,SMILES,% inhibition generated from Assay 1
1,"O=C(N[C@H](CN1CCCC1)[C@H](O)c1ccc(OCC(F)(F)F)nc1)C(F)(F)CCc1ccc2cc(F)ccc2c1 [Compound 88, 2,2-difluoro-4-(6-fluoronaphthalen-2-yl)-N-((1R,2R)-1-hydroxy-3-(pyrrolidin-1-yl)-1-(6-(2,2,2-trifluoroethoxy)pyridin-3-yl)propan-2-yl)butanamide]",A* (the compound had a % inhibition of a percent inhibition of greater than or equal to about 50%)
2,"O=C(N[C@H](CN1CCCC1)[C@H](O)c1ccc(OCC(F)(F)F)nc1)C(F)(F)C1Cc2ccc(Cl)cc2C1 (stereo partly drawn) [Compound 91, 2-(5-chloro-2,3-dihydro-1H-inden-2-yl)-2,2-difluoro-N-((1R,2R)-1-hydroxy-3-(pyrrolidin-1-yl)-1-(6-(2,2,2-trifluoroethoxy)pyridin-3-yl)propan-2-yl)acetamide]",B* (the compound had a % inhibition of greater than or equal to about 3% but less than about 50%)

# Same assay, conditions: Table 2; data without asterisk; read-out: IC50 (nM) generated from Assay 1
row,SMILES,IC50
1,"O=C(N[C@H](CN1CCC1)[C@H](O)c1cc(F)c2c(c1)OCCO2)C(F)(F)CCc1ccc2cc(F)ccc2c1 [Compound 86, N-((1R,2R)-3-(azetidin-1-yl)-1-(8-fluoro-2,3-dihydrobenzo[b][1,4]dioxin-6-yl)-1-hydroxypropan-2-yl)-2,2-difluoro-4-(6-fluoronaphthalen-2-yl)butanamide]",< 50 nM
2,"O=C(N[C@H](CN1CCC1)[C@H](O)c1cc(F)c2c(c1)OCCO2)C(=O)c1cc2cc(Cl)ccc2o1 [Compound 89, N-((1R,2R)-3-(azetidin-1-yl)-1-(8-fluoro-2,3-dihydrobenzo[b][1,4]dioxin-6-yl)-1-hydroxypropan-2-yl)-2-(5-chlorobenzofuran-2-yl)-2-oxoacetamide]",< 50 nM
3,"O=C(CCc1ccc2cc(F)ccc2c1)C(=O)N[C@H](CN1CCCC1)[C@H](O)c1ccc2c(c1)OCCO2 [Compound 90, N-((1R,2R)-1-(2,3-dihydrobenzo[b][1,4]dioxin-6-yl)-1-hydroxy-3-(pyrrolidin-1-yl)propan-2-yl)-4-(6-fluoronaphthalen-2-yl)-2-oxobutanamide]",< 50 nM

# More lines, now with the values ahead:
row,IC50,SMILES
1,< 50 nM,"O=C(N[C@H](CN1CCCC1)[C@H](O)c1ccc(OC2CC2)c(Cl)c1)C(F)(F)CCc1ccc2cc(F)ccc2c1 [Compound 82, N-((1R,2R)-1-(3-chloro-4-cyclopropoxyphenyl)-1-hydroxy-3-(pyrrolidin-1-yl)propan-2-yl)-2,2-difluoro-4-(6-fluoronaphthalen-2-yl)butanamide]"
2,< 50 nM,"O=C(N[C@H](CN1CCC1)[C@H](O)c1cc(F)c2c(c1)OCCO2)C(F)(F)c1cc2cc(Cl)ccc2o1 [Compound 83, N-((1R,2R)-3-(azetidin-1-yl)-1-(8-fluoro-2,3-dihydrobenzo[b][1,4]dioxin-6-yl)-1-hydroxypropan-2-yl)-2-(5-chlorobenzofuran-2-yl)-2,2-difluoroacetamide]"
3,< 50 nM,"O=C(N[C@H](CN1CCCC1)[C@H](O)c1ccc2c(c1)OCCO2)C(F)(F)CCc1ccc2cc(F)ccc2c1 [Compound 84, N-((1R,2R)-1-(2,3-dihydrobenzo[b][1,4]dioxin-6-yl)-1-hydroxy-3-(pyrrolidin-1-yl)propan-2-yl)-2,2-difluoro-4-(6-fluoronaphthalen-2-yl)butanamide]"
4,< 50 nM,"O=C(N[C@H](CN1CCCC1)[C@H](O)c1ccc(OCC(F)(F)F)nc1)C(F)(F)c1cc2cc(Cl)ccc2o1 [Compound 85, 2-(5-chlorobenzofuran-2-yl)-2,2-difluoro-N-((1R,2R)-1-hydroxy-3-(pyrrolidin-1-yl)-1-(6-(2,2,2-trifluoroethoxy)pyridin-3-yl)propan-2-yl)acetamide]"
5,< 50 nM,"O=C(N[C@H](CN1CCCC1)[C@H](O)c1cc(F)c2c(c1)OCCO2)C(F)(F)CCc1ccc2cc(F)ccc2c1 [Compound 87, 2,2-difluoro-N-((1R,2R)-1-(8-fluoro-2,3-dihydrobenzo[b][1,4]dioxin-6-yl)-1-hydroxy-3-(pyrrolidin-1-yl)propan-2-yl)-4-(6-fluoronaphthalen-2-yl)butanamide]"
